Data as given in ChEMBL document CHEMBL4138146, “A Schmidt rearrangement-mediated synthesis of novel tetrahydro-benzo[1,4]diazepin-5-ones as potential anticancer and antiprotozoal agents” (Eur J Med Chem, 2017).

Columns and labels:
Type in all cases: functional
HCT-15 = assay: Growth inhibition of human HCT15 cells incubated for 48 hrs by sulforhodamine B assay; details: HCT-15, 48 h, read-out: LC50 (the source's name)
RXF 393 = assay: Growth inhibition of human RXF393 cells incubated for 48 hrs by sulforhodamine B assay; details: RXF 393, 48 h
SK-MEL-5 = assay: Growth inhibition of human SK-MEL-5 cells incubated for 48 hrs by sulforhodamine B assay; details: SK-MEL-5, 48 h
M14 = assay: Growth inhibition of human M14 cells incubated for 48 hrs by sulforhodamine B assay; details: M14, 48 h
NCI-H226 = assay: Growth inhibition of human NCI-H226 cells incubated for 48 hrs by sulforhodamine B assay; details: NCI-H226, 48 h
BT-549 = assay: Growth inhibition of human BT549 cells incubated for 48 hrs by sulforhodamine B assay; details: BT-549, 48 h
T47D = assay: Growth inhibition of human T47D cells incubated for 48 hrs by sulforhodamine B assay
SN12C = assay: Growth inhibition of human SN12C cells incubated for 48 hrs by sulforhodamine B assay
HOP-62 = assay: Growth inhibition of human HOP62 cells incubated for 48 hrs by sulforhodamine B assay; details: HOP-62, 48 h
NCI-H23 = assay: Growth inhibition of human NCI-H23 cells incubated for 48 hrs by sulforhodamine B assay; details: NCI-H23, 48 h
A549 = assay: Growth inhibition of human A549/ATCC cells incubated for 48 hrs by sulforhodamine B assay; details: A549, 48 h
CAKI-1 = assay: Growth inhibition of human Caki1 cells incubated for 48 hrs by sulforhodamine B assay; details: CAKI-1, 48 h
HCT-116 = assay: Growth inhibition of human HCT116 cells incubated for 48 hrs by sulforhodamine B assay; details: HCT-116, 48 h
HT-29 = assay: Growth inhibition of human HT-29 cells incubated for 48 hrs by sulforhodamine B assay; details: HT-29, 48 h
IGROV-1 = assay: Growth inhibition of human IGROV1 cells incubated for 48 hrs by sulforhodamine B assay; details: IGROV-1, 48 h
EKVX = assay: Growth inhibition of human EKVX cells incubated for 48 hrs by sulforhodamine B assay
COLO 205 = assay: Growth inhibition of human COLO205 cells incubated for 48 hrs by sulforhodamine B assay; details: COLO 205, 48 h
Malme-3M = assay: Growth inhibition of human MALME-3M cells incubated for 48 hrs by sulforhodamine B assay
SF-268 = assay: Growth inhibition of human SF268 cells incubated for 48 hrs by sulforhodamine B assay; details: SF-268, 48 h
DU-145 = assay: Growth inhibition of human DU145 cells incubated for 48 hrs by sulforhodamine B assay; details: DU-145, 48 h
SK-MEL-2 = assay: Growth inhibition of human SK-MEL-2 cells incubated for 48 hrs by sulforhodamine B assay; details: SK-MEL-2, 48 h
SNB-75 = assay: Growth inhibition of human SNB75 cells incubated for 48 hrs by sulforhodamine B assay; details: SNB-75, 48 h
UACC-257 = assay: Growth inhibition of human UACC257 cells incubated for 48 hrs by sulforhodamine B assay; details: UACC-257, 48 h
K562 = assay: Growth inhibition of human K562 cells incubated for 48 hrs by sulforhodamine B assay; details: K562, 48 h
786-0 = assay: Growth inhibition of human 786-0 cells incubated for 48 hrs by sulforhodamine B assay; details: 786-0, 48 h
OVCAR-5 = assay: Growth inhibition of human OVCAR5 cells incubated for 48 hrs by sulforhodamine B assay; details: OVCAR-5, 48 h
A498 = assay: Growth inhibition of human A498 cells incubated for 48 hrs by sulforhodamine B assay; details: A498, 48 h
OVCAR-8 = assay: Growth inhibition of human OVCAR8 cells incubated for 48 hrs by sulforhodamine B assay; details: OVCAR-8, 48 h
UO-31 = assay: Growth inhibition of human UO31 cells incubated for 48 hrs by sulforhodamine B assay; details: UO-31, 48 h
LOX IMVI = assay: Growth inhibition of human LOXIMVI cells incubated for 48 hrs by sulforhodamine B assay
OVCAR-3 = assay: Growth inhibition of human OVCAR3 cells incubated for 48 hrs by sulforhodamine B assay; details: OVCAR-3, 48 h
HL-60(TB) = assay: Growth inhibition of human HL-60(TB) cells incubated for 48 hrs by sulforhodamine B assay; details: HL-60, 48 h
TK-10 = assay: Growth inhibition of human TK10 cells incubated for 48 hrs by sulforhodamine B assay; details: TK-10, 48 h
PC-3 = assay: Growth inhibition of human PC3 cells incubated for 48 hrs by sulforhodamine B assay; details: PC-3, 48 h
Hs-578T = assay: Growth inhibition of human Hs 578T cells incubated for 48 hrs by sulforhodamine B assay
MDA-MB-468 = assay: Growth inhibition of human MDA-MB-468 cells incubated for 48 hrs by sulforhodamine B assay; details: MDA-MB-468, 48 h
OVCAR-4 = assay: Growth inhibition of human OVCAR4 cells incubated for 48 hrs by sulforhodamine B assay; details: OVCAR-4, 48 h
MDA-MB-231 = assay: Growth inhibition of human MDA-MB-231 cells incubated for 48 hrs by sulforhodamine B assay; details: MDA-MB-231, 48 h
[1] = read-out: LC50 (the source's name)

`COc1cccc2c1C(=O)c1c(O)c3c(c(O)c1C2=O)C[C@@](O)(C(=O)CO)C[C@@H]3O[C@H]1C[C@H](N)[C@H](O)[C@H](C)O1` [DOXORUBICIN] was tested, and the CC50 (HCT-15) was 100000 nM, the GI50 (RXF 393) was 100 nM and the GI50 (SK-MEL-5) was 140 nM. For the same compound, the CC50 (SK-MEL-5; [1]) was 8150 nM, the GI50 (M14) was 180 nM and the GI50 (NCI-H226) was 50 nM. The CC50 (NCI-H226; [1]) was 6400 nM, the GI50 (BT-549) was 230 nM and the GI50 (T47D) was 60 nM. It also gave a GI50 (SN12C) of 70 nM, a GI50 (HOP-62) of 70 nM and a GI50 (NCI-H23) of 150 nM. For the same compound, the GI50 (A549) was 60 nM, the GI50 (CAKI-1) was 950 nM and the CC50 (CAKI-1; [1]) was 100000 nM. It also gave a GI50 (HCT-116) of 80 nM, a GI50 (HT-29) of 120 nM and a GI50 (IGROV-1) of 170 nM. The CC50 (IGROV-1; [1]) was 100000 nM, the GI50 (EKVX) was 410 nM and the GI50 (COLO 205) was 180 nM. For the same compound, the GI50 (Malme-3M) was 120 nM, the GI50 (SF-268) was 100 nM and the GI50 (DU-145) was 110 nM. The CC50 (DU-145; [1]) was 100000 nM, the GI50 (SK-MEL-2) was 210 nM and the CC50 (SK-MEL-2; [1]) was 15900 nM. For the same compound, the GI50 (SNB-75) was 70 nM, the CC50 (SNB-75; [1]) was 3300 nM and the GI50 (UACC-257) was 120 nM. The CC50 (UACC-257; [1]) was 740 nM, the GI50 (K562) was 190 nM and the GI50 (786-0) was 130 nM. It also gave a GI50 (OVCAR-5) of 410 nM, a CC50 (OVCAR-5; [1]) of 100000 nM and a GI50 (A498) of 100 nM. For the same compound, the CC50 (A498; [1]) was 1900 nM, the GI50 (OVCAR-8) was 100 nM and the GI50 (UO-31) was 490 nM. It also gave a GI50 (LOX IMVI) of 70 nM, a GI50 (OVCAR-3) of 390 nM and a GI50 (HL-60(TB)) of 120 nM. For the same compound, the GI50 (TK-10) was 380 nM, the GI50 (PC-3) was 320 nM and the GI50 (Hs-578T) was 330 nM. For the same compound, the GI50 (MDA-MB-468) was 50 nM, the GI50 (OVCAR-4) was 370 nM and the GI50 (MDA-MB-231) was 510 nM.
